The results in this text go back to patent publication US10130101B2 (priority 2015, dated 2018).

In data set [1] the test system is pyrethroid resistant bed bugs, Cimex lectularius (ECL-05 strain). The class given is in vivo. Conditions: day 7; 0.05% imidacloprid formulation, not diluted; direct spray 0.50 g per replication.
Procedure: Treatments 1 to 4 were diluted in acetone to 5.5% w/w. Treatment 5 was not diluted.
The ECL-05 strain of bugs was used in the study. This strain represents an aggregate colony of pyrethroid resistant strains of bed bugs from Minnesota, Wisconsin, Florida and New Jersey.
Adult male bed bugs, 5 to 6 weeks old, were sorted from the colonies at the University of Minnesota using a pair of soft tissue forceps (Fisher Scientific, Pittsburgh, Pa., USA). Bed bugs were transferred to Applicant and maintained in a glass jar with a mesh screen top, as described above, in an environmental chamber (Darwin Chamber Company, Saint Louis, Mo., USA) at 27° C. and 65% relative humidity until testing.
For testing, 10 adult males were transferred into specific bed bug spray containers using soft tissue forceps. Bed bug spray containers were constructed by placing a 150 mm Whatman filter paper (Fisher Scientific, Pittsburgh, Pa., USA) onto the top of a stainless steel, round ring (10 cm in diameter and 3.25 cm in height). A second stainless steel ring of similar dimensions was then stacked on top of the base ring creating a double-ring structure with a filter paper surface in between. The sides of the double ring structure were secured with laboratory labeling tape (Fisher Scientific, Pittsburgh, Pa., USA). […]
The test system of data set [2] is pyrethroid resistant bed bugs. As to the kind of experiment: whole plant or invertebrate. Conditions: Cimex lectularius, 168 h; 7 days; imidacloprid at 0.05% w/w. The format is in vivo.
Source text: For testing, 10 adult males were transferred into specific bed bug spray containers using soft tissue forceps. Bed bug spray containers were constructed by placing a 150 mm Whatman filter paper (Fisher Scientific, Pittsburgh, Pa., USA) onto the top of a stainless steel, round ring (10 cm in diameter and 3.25 cm in height). A second stainless steel ring of similar dimensions was then stacked on top of the base ring creating a double-ring structure with a filter paper surface in between. The sides of the double ring structure were secured with laboratory labeling tape (Fisher Scientific, Pittsburgh, Pa., USA). In the resulting setup, the filter paper provides a non-abrasive surface for bed bugs to rest on while it also serves to absorb any overspray in the container. Following the transfer of bed bugs from the colony jar, bed bugs were allowed to recover for 1 hour in the spray container before treatment application commenced.
Treatments were administered using a DeVilbiss 151 atomizer (The DeVilbiss Co., Glendale Heights, Ill., USA) attached to a Paasche D500 air compressor (Paasche Airbrush Company, Chicago, Ill., USA). Treatment volume was set at 0.50 g of treatment solution per replication. […]
Mortality at day 7 was analyzed by one-way analysis of variance (ANOVA). […]

`O=[N+]([O-])NC1=NCCN1Cc1ccc(Cl)nc1` [Imidacloprid, imidacloprid]: in data set [1], the “Mortality (%)” value was found to be 100.0%. For the same compound, the mortality at 0.05 % strength in data set [2] is 100%.

As usually defined, the mortality is the share of the test organisms that died.
